Experimental data published in article PMC10427817, “Bioactivities of β-mangostin and its new glycoside derivatives synthesized by enzymatic reactions” (Royal Society Open Science, 2023).
Values after ≈ are worked out from the molar mass of the structure shown. Read-outs that look alike come from different tables or passages of the source.

Columns and labels:
C6 cells = system: C6 cells; set-up: method as in PMID 34896543; details: C6 glioma cells; read-out: IC50, cell survival; cited from earlier work
KB epidermal carcinoma = assay: MTT cytotoxicity assay, KB; assay type: cell-based, human; details: Homo sapiens, KB cell line, 72 h, mean ± s.d., three replicates
Experimental: (§1) The cytotoxic activities against the cancer cell lines KB epidermal carcinoma, A549 lung cancer, HepG2 liver cancer and MCF-7 breast cancer, as well as the healthy cell line HEK293 embryonic kidney cells, were determined using the 3-(4,5-dimethylthiazol-2-yl)-2,5-diphenyltetrazolium bromide (MTT) assay. Briefly, cell lines were grown into log phase at 37°C, 5% CO2 in DMEM-Dulbecco's modified Eagle's medium and 10% fetal bovine serum. A concentration of 1 × 10^4–3 × 10^4 cells ml^−1 was prepared depending on the cell line used for the experiment by adding 10 µl of the sample and 190 µl of the cell suspension, followed by incubation under standard conditions. After 72 h of culture, 10 µl of MTT (5 mg ml^−1) was added and incubated for 4 h. Dimethyl sulfoxide (100 µl) was added to dissolve formazan crystals and the density was measured at 540 nm using a BioTek spectrophotometer. The inhibition of cell growth was expressed as IC50 (the half-maximal inhibitory concentration) value.

HepG2 liver cancer = assay: MTT cytotoxicity assay, HepG2; assay type: cell-based, human; details: Homo sapiens, HepG2 cell line, 72 h, mean ± s.d., three replicates
Experimental: as §1, with “value. Ellipticine was used as reference.” for “value.”

MCF-7 cell line = system: MCF-7 cell line; set-up: method as in doi:10.1016/j.jff.2013.10.018; details: cited from earlier work
A549 lung cancer = assay: MTT cytotoxicity assay, A549; assay type: cell-based, human; details: Homo sapiens; A549 cell line, MTT, 72 h, mean ± s.d., three replicates; read-out: IC50
Experimental: as §1, with “value. Ellipticine was used as reference.” for “value.”

Pseudomonas aeruginosa = assay: Anti-microbial activity assay, P. aeruginosa; assay type: cell-based
Experimental: (§2) Bacterial and fungal strains (Bacillus subtilis, Staphylococcus aureus, Lactobacillus fermentum, Escherichia coli, Pseudomonas aeruginosa, Salmonella enterica and Candida albicans) were activated on TSA (Tryptic Soy Agar) and SA (Sabouraud–4% dextrose agar) media, respectively. Before the experiment, the microbial strains were grown in the corresponding liquid media at a concentration of approximately 5 × 10^5 CFU ml^−1 for bacteria and 1 × 10^3 CFU ml^−1 for fungi. The microbial suspension (190 µl) was mixed with 10 µl of the test sample, which was serially diluted twofold, and the microplate was incubated at 37°C for 16–24 h.

Bacillus subtilis = assay: Anti-microbial activity assay, B. subtilis; assay type: cell-based; details: B. subtilis
Experimental: as §2

Staphylococcus aureus = assay: Anti-microbial activity assay, S. aureus; assay type: cell-based; details: S. aureus
Experimental: as §2

HeLa and SiHa cells = details: cited from earlier work
[1] = system: Enterococcus (VRE; vancomycin-resistant strain); set-up: method as in PMID 22494050; details: cited from earlier work
AChE = AChE (Homo sapiens, UniProt P22303); assay: Acetylcholinesterase inhibitory activity assay; assay type: biochemical; details: AChE 0.25 IU ml^−1, ATCI/DTNB, mean ± s.d., three replicates
Sequence of AChE (P22303 32-614): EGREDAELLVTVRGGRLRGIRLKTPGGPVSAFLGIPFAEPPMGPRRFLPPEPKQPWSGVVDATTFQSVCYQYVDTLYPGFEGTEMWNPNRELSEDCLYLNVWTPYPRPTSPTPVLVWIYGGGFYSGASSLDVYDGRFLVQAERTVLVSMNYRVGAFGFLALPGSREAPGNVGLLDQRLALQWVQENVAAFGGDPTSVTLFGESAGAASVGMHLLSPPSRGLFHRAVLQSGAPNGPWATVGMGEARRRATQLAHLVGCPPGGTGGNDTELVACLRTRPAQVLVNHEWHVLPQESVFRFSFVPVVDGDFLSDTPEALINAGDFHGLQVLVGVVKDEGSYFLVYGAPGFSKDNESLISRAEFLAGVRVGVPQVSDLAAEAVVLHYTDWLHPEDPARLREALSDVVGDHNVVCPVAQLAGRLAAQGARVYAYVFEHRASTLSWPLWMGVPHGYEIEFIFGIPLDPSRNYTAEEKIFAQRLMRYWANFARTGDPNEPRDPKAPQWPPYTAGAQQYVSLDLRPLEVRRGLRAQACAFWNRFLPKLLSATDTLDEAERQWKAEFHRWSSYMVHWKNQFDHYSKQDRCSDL
Experimental: For the assay, acetylthiocholine iodide (ATCI) was used as a substrate for the reaction and 5,5′-dithiobis-(2-nitrobenzoic acid) (DTNB) was used to measure AChE activity. The reaction (200 µl) on a 96-well plate was performed by mixing Tris–Cl buffer (pH 8.0), tested sample in a twofold serial dilution, AChE (0.25 IU ml^−1) and incubating at 25°C, 15 min before adding 2.4 mM DTNB and 2.4 mM ATCI.

[2] = system: HeLa cervical cancer cells; set-up: method as in PMID 26781450; details: cited from earlier work
[3] = system: S. aureus (MRSA; methicillin-resistant strain); set-up: method as in PMID 22494050; details: cited from earlier work
α-glucosidase [4] = biological target: T1, α-glucosidase (Saccharomyces cerevisiae, UniProt P53341); assay: Alpha-glucosidase inhibitory assay; assay type: biochemical
T1 construct: purchased Sigma
T1 sequence (P53341 whole entry): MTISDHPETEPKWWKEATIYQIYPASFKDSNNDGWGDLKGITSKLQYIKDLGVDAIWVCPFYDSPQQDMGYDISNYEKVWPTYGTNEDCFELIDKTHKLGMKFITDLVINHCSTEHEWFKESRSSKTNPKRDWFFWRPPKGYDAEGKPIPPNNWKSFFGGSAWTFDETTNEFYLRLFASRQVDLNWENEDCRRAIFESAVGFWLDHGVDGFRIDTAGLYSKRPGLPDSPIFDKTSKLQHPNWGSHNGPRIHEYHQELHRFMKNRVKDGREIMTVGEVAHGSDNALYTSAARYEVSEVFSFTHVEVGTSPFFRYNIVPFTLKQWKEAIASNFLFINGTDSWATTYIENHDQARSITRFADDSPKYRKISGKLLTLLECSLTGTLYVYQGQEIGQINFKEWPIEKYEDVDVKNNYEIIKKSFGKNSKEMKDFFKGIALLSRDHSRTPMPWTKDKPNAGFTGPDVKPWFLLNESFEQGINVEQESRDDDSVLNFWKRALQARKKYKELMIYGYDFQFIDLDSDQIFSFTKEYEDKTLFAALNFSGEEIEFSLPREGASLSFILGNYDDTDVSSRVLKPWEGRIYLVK
Experimental: Beta-mangostin and α-mangostin were purchased from Chengdu Biopurify Phytochemicals, Ltd. Recombinant Escherichia coli (BL21 (DE3)) strains were kindly provided by Prof. Jae Kyung Sohng, Sun Moon University, Korea. The cell lines and microorganisms were derived from the American Type Culture Collection (ATCC). α-Glucosidase (CAS no. 900-42-7, Sigma) was from Saccharomyces cerevisiae. All chemicals were of analytical grade and available.
The α-glucosidase inhibitory activity assay was conducted using a reaction mixture containing phosphate buffer (100 mM; pH 6.8), p-nitrophenyl-α-D-glucopyranoside (pNPG) (2.5 mM) and samples at various concentrations. The reactions were initiated by adding α-glucosidase (0.2 U ml^−1), incubated at 37°C for 30 min and quenched by adding Na2CO3 (50 mM). The absorbance of the reaction was determined using a BioTek instrument at a wavelength of 410 nm (A).

α-glucosidase [5] = details: ref 44; read-out: IC50, α-glucosidase inhibitory activity; cited from earlier work
T89G cells = system: T89G cells; set-up: method as in PMID 34896543; details: T89G glioma cells; read-out: IC50, cell survival; cited from earlier work
Lactobacillus fermentum = assay: Anti-microbial activity assay, L. fermentum; assay type: cell-based; details: L. fermentum
Experimental: as §2

In the case of COc1cc2oc3cc(O)c(OC)c(CC=C(C)C)c3c(=O)c2c(O)c1CC=C(C)C [β-mangostin], the IC50 (C6 cells) is given as 4.8 µM, the IC50 (KB epidermal carcinoma) is given as 21.1 ± 9.9 µM and the IC50 (HepG2 liver cancer) is given as 18.9 ± 7.6 µM. The IC50 (MCF-7 cell line; MCF-7, 24 h treatment) was 26 µM, the IC50 (MCF-7 cell line; MCF-7, 48 h treatment) was 16.5 µM and the IC50 (A549 lung cancer) was 15.4 ± 5.1 µM. The MIC (Pseudomonas aeruginosa) was “greater than 32 μg ml^−1”, the IC50 (Pseudomonas aeruginosa; Pseudomonas aeruginosa) was > 32 mg/L and the MIC (Pseudomonas aeruginosa; Pseudomonas aeruginosa, read-out: MIC) was > 32 mg/L. It also gave an IC50 (Bacillus subtilis; read-out: IC50) of 0.16 ± 0.01 mg/L (≈ 0.377 µM), an MIC (Bacillus subtilis; read-out: MIC) of 0.5 mg/L (≈ 1.18 µM) and an IC50 (Staphylococcus aureus; read-out: IC50) of 1.24 ± 0.05 mg/L (≈ 2.92 µM). For the same molecule, the MIC (Staphylococcus aureus; read-out: MIC) was > 32 mg/L, the “cytotoxicity or cell cycle suppression” value (HeLa and SiHa cells) was “did not cause cytotoxicity or cell cycle suppression” and the MIC [1] was > 200 mg/L. The IC50 (AChE) was 2.17 ± 0.18 µM, the IC50 [2] was 27.2 µM and the MIC [3] was > 200 mg/L. The IC50 (α-glucosidase [4]) was 27.6 ± 4.6 µM, the inhibitory potency ratio (α-glucosidase [4]; compared with the positive control acarbose) was 7.55 and the IC50 (α-glucosidase [5]) was 14.4 µM. For the same molecule, the IC50 (T89G cells) was 10.3 µM, the IC50 (Lactobacillus fermentum; read-out: IC50) was 0.18 ± 0.01 mg/L (≈ 0.424 µM) and the MIC (Lactobacillus fermentum; read-out: MIC) was 0.5 mg/L (≈ 1.18 µM).
